Results as given in US11578080B2, “Thienopyrimidones” (Boehringer Ingelheim International GmbH, priority 2019, dated 2023).

Legend:
[1] = Assay B: Microsomal clearance; format: in vitro ADME, human; conditions: pooled liver microsomes, 1 μM test compound, 37° C.
Procedure: Assay B: Microsomal Clearance:
The metabolic degradation of the test compound is assayed at 37° C. with pooled liver microsomes. The final incubation volume of 100 μl per time point contains TRIS buffer pH 7.6 at RT (0.1 M), magnesium chloride (5 mM), microsomal protein (1 mg/ml) and the test compound at a final concentration of 1 μM.
Following a short preincubation period at 37° C., the reactions are initiated by addition of beta-nicotinamide adenine dinucleotide phosphate, reduced form (NADPH, 1 mM) and terminated by transferring an aliquot into solvent after different time points (0, 5, 15, 30, 60 min). Additionally, the NADPH-independent degradation is monitored in incubations without NADPH, terminated at the last time point. The [%] remaining test compound after NADPH independent incubation is reflected by the parameter c(control) (metabolic stability). The quenched incubations are pelleted by centrifugation (10000 g, 5 min).
An aliquot of the supernatant is assayed by LC-MS/MS for the amount of parent compound. The half-life (t½ INVITRO) is determined by the slope of the semilogarithmic plot of the concentration-time profile.
The intrinsic clearance (CL_[…]) is calculated by considering the amount of protein in the incubation: CL_[…] [μl/min/mg protein]=(Ln 2/(half-life [min]*protein content [mg/ml]))*1000 CL_[…]_INVIVO [ml/min/kg]=(CL_[…] [μL/min/mg protein]×MPPGL [mg protein/g liver]×liver factor [g/kg body weight])/1000 Qh [%]=CL [ml/min/kg]/hepatic blood flow [ml/min/kg])
(§1) Hepatocellularity, human: 120×10e6 cells/g liver
(§2) Liver factor, human: 25.7 g/kg bodyweight
(§3) Blood flow, human: 21 ml/(min×kg)

human TRPA1 ion channel = human TRPA1 ion channel (Homo sapiens (Human), UniProt O75762); assay: Assay A: TRPA1 assay (FLIPR calcium, AITC agonism, HEK293 over-expressing human TRPA1); format: cell-based; conditions: HEK293 over-expressing human TRPA1, AITC 10 μM, FLIPRtetra; read-out: hTRPA1 IC50
Chain of human TRPA1 ion channel (O75762 whole entry): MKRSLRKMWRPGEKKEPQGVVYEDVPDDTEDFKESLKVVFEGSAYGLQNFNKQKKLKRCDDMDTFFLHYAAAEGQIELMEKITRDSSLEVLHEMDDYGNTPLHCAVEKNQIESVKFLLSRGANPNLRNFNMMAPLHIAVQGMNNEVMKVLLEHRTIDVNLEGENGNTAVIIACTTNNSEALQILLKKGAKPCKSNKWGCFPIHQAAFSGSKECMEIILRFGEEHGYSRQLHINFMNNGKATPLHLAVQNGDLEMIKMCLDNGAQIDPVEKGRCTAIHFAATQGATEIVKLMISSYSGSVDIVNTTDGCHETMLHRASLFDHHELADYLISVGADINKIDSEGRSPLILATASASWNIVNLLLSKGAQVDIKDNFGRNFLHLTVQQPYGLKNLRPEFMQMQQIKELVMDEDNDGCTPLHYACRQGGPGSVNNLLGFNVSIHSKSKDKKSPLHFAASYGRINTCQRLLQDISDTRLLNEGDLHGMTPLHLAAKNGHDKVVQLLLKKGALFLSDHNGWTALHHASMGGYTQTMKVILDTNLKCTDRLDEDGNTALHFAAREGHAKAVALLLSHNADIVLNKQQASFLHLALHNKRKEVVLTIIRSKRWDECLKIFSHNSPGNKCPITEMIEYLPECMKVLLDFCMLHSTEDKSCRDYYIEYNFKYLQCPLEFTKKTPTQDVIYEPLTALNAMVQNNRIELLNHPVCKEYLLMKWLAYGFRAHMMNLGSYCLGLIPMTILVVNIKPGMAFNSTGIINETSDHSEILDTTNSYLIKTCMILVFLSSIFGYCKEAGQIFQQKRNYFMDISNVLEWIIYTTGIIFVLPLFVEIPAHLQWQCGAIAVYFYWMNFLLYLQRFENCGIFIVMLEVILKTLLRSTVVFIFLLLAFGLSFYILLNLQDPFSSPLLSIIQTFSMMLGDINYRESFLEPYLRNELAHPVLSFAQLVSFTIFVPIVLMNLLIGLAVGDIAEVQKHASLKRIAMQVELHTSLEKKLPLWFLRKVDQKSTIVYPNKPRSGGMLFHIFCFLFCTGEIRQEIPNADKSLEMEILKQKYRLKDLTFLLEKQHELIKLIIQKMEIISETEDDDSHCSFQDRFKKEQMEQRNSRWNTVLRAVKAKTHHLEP
Procedure: A human HEK293 cell line over-expressing the human TRPA1 ion channel (Perkin Elmer, Product No. AX-004-PCL) was used as a test system for compound efficacy and potency. Compound activity was determined by measuring the effect of compounds on intracellular calcium concentration induced by AITC (Allylisothiocyanat) agonism in a FLIPRtetra system (Molecular Devices).
The cells were obtained as frozen cells in cryo-vials and stored until use at −150° C. Cells were grown in culture medium (MEM/EBSS medium with 10% FCS and 0.4 mg/ML Geneticin). […] For sub-culturing cells were detached from flasks by Versene. At the day before the assay, cells were detached, washed twice with medium (MEM/EBSS medium with 10% FCS) and 20000 cells in 20 μl/well were seeded to Poly D-Lysin biocoated 384-well plates (black, clear bottom, Cat. 356697) from Corning. Plates were incubated for 24 hours at 37° C./5% CO2 before use in the assay.
The test compounds were dissolved in 100% DMSO at a concentration of 10 mM and in a first step diluted in DMSO to a concentration of 5 mM, followed by serial dilution steps in 100% DMSO. Dilution factor and number of dilution steps may vary according to needs. Typically 8 different concentrations by 1:5 dilutions were prepared, further intermediate dilutions (1:20) of the substances were carried out with HBSS/HEPES buffer (1×HEPES, Cat. 14065 from Gibco, 20 mM HEPES, Cat. 83264 from SIGMA, 0.1% BSA Cat. 11926 from Invitrogen, pH 7,4
At the assay day cells were washed 3× with assay puffer, 20 μL buffer remained in the wells after washing. 10 μL Ca6 kit (Cat. R8191 MolecularDevices) loading buffer in HBSS/HEPES was added to the cells and the plates were incubated with lid for 120 minutes at […]. 10 μL of compound or controls in HBSS/HEPES buffer/5% DMSO from the intermediate dilution plate were carefully added to the wells. […] Finally 10 μL of the agonist AITC 50 μM dissolved in HBSS/HEPES buffer/0.05% DMSO (final concentration 10 μM) was added to the wells followed by an additional read on the FLIPRtetra device for 10 minutes. The area under the signal curve (AUC) after AITC addition was used for IC50/% inhibition calculations
Data Evaluation and Calculation:
Each assay microtiter plate contained wells with vehicle (1% DMSO) controls instead of compound as controls for AITC induced luminescence (100% CTL; high controls) and wells with vehicle controls without AITC as controls for non-specific changes in luminescence (0% CTL; low controls).
The analysis of the data was performed by the calculation of the area under signal curve of the individual wells. Based on this values the % value for the measurement of each substance concentration was calculated (AUC(sample)−AUC(low))*100/(AUC(high)−AUC(low)) using MegaLab software (in house development). The IC50 values were calculated from the % control values using MegaLab software. Calculation: [y=(a−d)/(1+(x/c)^b)+d], a=low value, d=high value; x=cone M; c=IC50 M; b=hill; y=% ctrl

[2] = Assay C: Hepatocyte clearance; format: in vitro ADME, human; conditions: hepatocyte suspension, 1 μM test compound
Procedure: Assay C: Hepatocyte Clearance
The metabolic degradation of the test compound is assayed in a hepatocyte suspension. Hepatocytes (cryopreserved) are incubated in. Dulbecco's modified eagle medium (supplemented with 3.5 μg glucagon/500 mL, 2.5 mg insulin/500 mL and 3.75 mg/500 mL hydrocortison) containing 5% or 50% species serum.
Following a 30 min preincubation in an incubator (37° C., 10% CO2) 5 μl of test compound solution (80 μM; from 2 mM in DMSO stock solution diluted 1:25 with medium) are added into 395 μl hepatocyte suspension (cell density in the range 0.25-5 Mio cells/mL depending on the species, typically 1 Mio cells/mL; final concentration of test compound 1 μM, final DMSO concentration 0.05%).
The cells are incubated for six hours (incubator, orbital shaker) and samples (25 μl) are taken at 0, 0.5, 1, 2, 4 and 6 hours. Samples are transferred into acetonitrile and pelleted by centrifugation (5 min). The supernatant is transferred to a new 96-deepwell plate, evaporated under nitrogen and resuspended.
Decline of parent compound is analyzed by HPLC-MS/MS
CLint is calculated as follows CL_[…]=Dose/AUC=(C0/CD)/(AUD+clast/k)×1000/60. CO: initial concentration in the incubation [μM], CD: cell density of vital cells [10e6 cells/mL], AUD: area under the data [μM×h], clast: concentration of last data point [μM], k: slope of the regression line for parent decline [h-1].
The calculated in vitro hepatic intrinsic clearance can be scaled up to the intrinsic in vivo hepatic Clearance and used to predict hepatic in vivo blood clearance (CL) by the use of a liver model (well stirred model). CL_[…]_INVIVO [ml/min/kg]=(CL_[…] [μL/min/10e6 cells]×hepatocellularity [10e6 cells/g liver]×liver factor [g/kg body weight])/1000 CL [ml/min/kg]=CL_[…]_INVIVO [ml/min/kg]×hepatic blood flow [ml/min/kg]/(CL_[…]_INVIVO [ml/min/kg]+hepatic blood flow [ml/min/kg]) Qh [%]=CL [ml/min/kg]/hepatic blood flow [ml/min/kg])
as §1, §2, §3

[3] = Assay D: Metabolism in human hepatocytes in vitro; format: in vitro ADME; conditions: primary human hepatocytes, 10 μM
Procedure: Assay D: Metabolism in Human Hepatocytes In Vitro
The metabolic pathway of a test compound is investigated using primary human hepatocytes in suspension.
Following a 30 min preincubation in a cell culture incubator (37° C., 10% CO2), test compound solution is spiked into the hepatocyte suspension to obtain a final cell density of 1.0*10^6 to 4.0*10^6 cells/ml (depending on the metabolic turnover rate of the compound observed with primary human hepatocytes), a final test compound concentration of 10 μM, and a final DMSO concentration of 0.05%.
The cells are incubated for six hours in a cell culture incubator on a horizontal shaker, and samples are removed from the incubation after 0, 0.5, 1, 2, 4 or 6 hours, depending on the metabolic turnover rate. Samples are quenched with acetonitrile and pelleted by centrifugation. The supernatant is transferred to a 96-deepwell plate, evaporated under nitrogen and resuspended prior to bioanalysis by liquid chromatography-high resolution mass spectrometry for identification of putative metabolites.

O=C1NCCc2c1sc1ncn(Cc3nnn(C[C@H](O)c4ccc(Cl)cc4)n3)c(=O)c21 [Example 6]
human LM [% Qh] [1]: <23 % Qh
IC50 (human TRPA1 ion channel): 11 nM
human Hepatocytes [% Qh] [2]: 7 % Qh
Major metabolite observed: Mechanism ([3]; Metabolite M1): Oxygenation
Major metabolite observed: Mechanism ([3]; Metabolite M2): Dehydrogenation
Major metabolite observed: Mechanism ([3]; Metabolite M3): Glucuronidation
